From patent US9029401B2 (The Regents of the University of California, priority 2011, dated 2015)
Read-outs that look alike come from different tables or passages of the source.

Legend:
[1] = biological target: Raf-1 (Homo sapiens (Human), UniProt P04049); test: In vitro kinase inhibition assay (ADP-Glo), Raf-1; type: biochemical
Procedure: (§1) All measurements included background and control (vehicle only) luminescence readings.
(§2) The kinases Raf-1 and b-Raf (V600E), and their corresponding substrate, MEK1, and Full length recombinant CRAF kinase and its respective substrate, recombinant MEK1, were purchased from US Biological (Swampscott, Mass.). All assays were performed under identical conditions for the Raf isozymes: 10 nM Enzyme, 1 μM MEK1, 10 μM ATP, at 22° C. for 2 hours. […] IC50 values were obtained by determining the change in the ADP production (luminescence signal) at various inhibitor concentrations as compared to the control assay. Individual data sets were performed in duplicate and each IC50 was determined by the average and standard deviation of three separate experiments.
as §2, with “Full” for “The kinases Raf-1 and b-Raf (V600E), and their corresponding substrate, MEK1, and Full”, “at” for “under identical conditions for the Raf isozymes:”, “CRAF,” for “Enzyme,”, “(luminescent” for “(luminescence”, “mean” for “average”

[2] = biological target: human sEH (Homo sapiens (Human), UniProt P34913); test: Inhibitory activity against human sEH; type: biochemical
[3] = biological target: b-Raf (V600E) (Homo sapiens (Human), UniProt P15056, V600E); test: In vitro kinase inhibition assay (ADP-Glo), b-Raf (V600E); type: biochemical
Procedure: as §1, §2

[4] = test system: ACHN renal cell carcinoma cell line; test: MTT cell viability assay, ACHN; type: cell-based; details: Homo sapiens, 72 h, read-out: EC50 on cell viability, ACHN (Kidney)
Procedure: (§3) Cell-based assays were performed using the described cell lines, grown in the appropriate Growth Mediums containing 10% fetal bovine serum and 1% penicillin-streptomycin. Cancer cells were plated at 15,000 cells/well in 96-well plates and allowed to attach overnight. […] Cell viability was determined after 72 hours incubation periods. To determine anti-proliferative effects of inhibitors, cellular proliferation was determined using the colorimetric MTT cell viability assay kit, as described by the manufacture (ATCC).

[5] = test system: HepG2 hepatoma cell line; test: MTT cell viability assay, HepG2; type: cell-based; details: for EC50: Homo sapiens, read-out: EC50 on cell viability, HepG2 (Liver)
Procedure: as §3

[6] = test system: SKBR3 breast cancer cell line; test: MTT cell viability assay, SKBR3; type: cell-based; details: Homo sapiens, read-out: EC50 on cell viability, SKBR3 (Breast)
Procedure: (§4) Cell-based assays were performed using the described cell lines, grown in the appropriate Growth Mediums containing 10% fetal bovine serum and 1% penicillin-streptomycin. Cancer cells were plated at 15,000 cells/well in 96-well plates and allowed to attach overnight. Inhibitors were dissolved in DMSO and then diluted to concentrations ranging from 0.1-25 μM with a final DMSO concentration of 0.1%. Cell viability was determined after 72 hours incubation periods. To determine anti-proliferative effects of inhibitors, cellular proliferation was determined using the colorimetric MTT cell viability assay kit, as described by the manufacture (ATCC).

[7] = test system: Huh-7 hepatoma cell line; test: MTT cell viability assay, Huh-7; type: cell-based; details: Homo sapiens, read-out: EC50 on cell viability, Huh-7 (Liver)
Procedure: as §3

[8] = test system: T47D breast cancer cell line; test: MTT cell viability assay, T47D; type: cell-based; details: Homo sapiens, 72 hours incubation
Procedure: as §4

[9] = test system: PC-3 prostate cancer cell line; test: MTT cell viability assay, PC-3; type: cell-based; details: 72 h, read-out: EC50 on cell viability, PC-3 (Prostate)
Procedure: as §4

[10] = 10 nM enzyme, 1 μM MEK1, 10 μM ATP, 22° C., 2 hours, read-out: Raf-1 IC50

b-Raf (V600E), sequence (P15056 whole entry V600E): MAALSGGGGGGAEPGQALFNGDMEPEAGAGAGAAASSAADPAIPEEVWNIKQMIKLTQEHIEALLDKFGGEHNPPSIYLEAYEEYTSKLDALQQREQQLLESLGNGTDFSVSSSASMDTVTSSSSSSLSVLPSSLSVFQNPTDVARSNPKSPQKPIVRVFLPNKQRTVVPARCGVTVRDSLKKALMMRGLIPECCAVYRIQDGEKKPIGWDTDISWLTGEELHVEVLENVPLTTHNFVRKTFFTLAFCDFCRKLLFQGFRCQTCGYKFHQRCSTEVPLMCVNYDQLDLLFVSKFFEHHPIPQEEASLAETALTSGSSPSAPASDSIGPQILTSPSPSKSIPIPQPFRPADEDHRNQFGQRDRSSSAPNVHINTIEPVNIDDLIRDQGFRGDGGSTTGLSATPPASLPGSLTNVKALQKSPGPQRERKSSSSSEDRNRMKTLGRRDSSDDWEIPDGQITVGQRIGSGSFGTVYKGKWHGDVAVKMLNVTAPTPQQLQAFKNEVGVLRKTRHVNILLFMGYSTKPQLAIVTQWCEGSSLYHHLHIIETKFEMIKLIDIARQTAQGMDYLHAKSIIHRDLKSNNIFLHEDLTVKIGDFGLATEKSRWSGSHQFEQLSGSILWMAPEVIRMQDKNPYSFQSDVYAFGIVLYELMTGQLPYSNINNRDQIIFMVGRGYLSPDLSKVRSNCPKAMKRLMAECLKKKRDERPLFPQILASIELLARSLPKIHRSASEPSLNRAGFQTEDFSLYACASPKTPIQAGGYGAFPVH
human sEH, sequence (P34913 whole entry): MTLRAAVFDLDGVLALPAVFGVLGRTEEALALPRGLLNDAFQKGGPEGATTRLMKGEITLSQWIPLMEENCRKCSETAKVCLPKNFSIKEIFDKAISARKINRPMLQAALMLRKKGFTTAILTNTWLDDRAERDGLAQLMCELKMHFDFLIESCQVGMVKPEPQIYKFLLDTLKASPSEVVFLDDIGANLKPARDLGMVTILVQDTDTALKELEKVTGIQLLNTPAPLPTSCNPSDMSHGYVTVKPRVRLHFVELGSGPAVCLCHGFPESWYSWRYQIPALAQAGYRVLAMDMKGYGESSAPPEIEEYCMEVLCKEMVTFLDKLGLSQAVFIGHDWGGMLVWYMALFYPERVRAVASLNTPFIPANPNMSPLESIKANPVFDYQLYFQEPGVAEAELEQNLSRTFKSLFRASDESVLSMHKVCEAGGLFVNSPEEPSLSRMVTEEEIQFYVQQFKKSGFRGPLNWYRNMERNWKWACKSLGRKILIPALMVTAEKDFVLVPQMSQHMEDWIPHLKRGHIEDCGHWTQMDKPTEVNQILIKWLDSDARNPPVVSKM
Raf-1, sequence (P04049 whole entry): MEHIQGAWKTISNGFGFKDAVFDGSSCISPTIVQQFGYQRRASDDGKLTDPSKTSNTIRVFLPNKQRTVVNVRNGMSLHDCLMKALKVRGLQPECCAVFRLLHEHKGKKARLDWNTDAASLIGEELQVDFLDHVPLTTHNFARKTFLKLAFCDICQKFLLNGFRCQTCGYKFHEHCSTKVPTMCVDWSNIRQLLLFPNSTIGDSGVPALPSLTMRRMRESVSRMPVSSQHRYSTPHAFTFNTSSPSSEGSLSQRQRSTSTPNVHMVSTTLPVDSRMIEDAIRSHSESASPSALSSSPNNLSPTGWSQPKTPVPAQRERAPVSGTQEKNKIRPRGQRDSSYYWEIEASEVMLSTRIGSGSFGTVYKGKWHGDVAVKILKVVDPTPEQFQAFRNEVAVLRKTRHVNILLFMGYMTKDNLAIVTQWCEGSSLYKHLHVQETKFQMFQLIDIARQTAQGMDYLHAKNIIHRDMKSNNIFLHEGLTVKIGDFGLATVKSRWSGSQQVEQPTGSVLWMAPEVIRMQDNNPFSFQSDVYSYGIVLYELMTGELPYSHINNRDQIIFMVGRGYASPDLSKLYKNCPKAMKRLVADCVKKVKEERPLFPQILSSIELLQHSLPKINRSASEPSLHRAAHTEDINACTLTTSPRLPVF

## CCN(CC)C(=O)c1cc(O[C@H]2CC[C@H](NC(=O)Nc3ccc(Cl)c(C(F)(F)F)c3)CC2)ccn1 [Compound 2574, trans-4-{4-[3-(4-Chloro-3-trifluoromethyl-phenyl)-ureido]-cyclohexyloxy}-pyridine-2-carboxylic acid diethylamide]
[1]; [10]
  IC50: > 10000 nM
[2]; read-out: Human sEH IC50
  IC50: 0.5 nM

## CC(C)(C)OC(=O)c1cc(O[C@H]2CC[C@H](NC(=O)Nc3ccc(Cl)c(C(F)(F)F)c3)CC2)ccn1 [Compound 2280, trans-4-{4-[3-(4-Chloro-3-trifluoromethyl-phenyl)-ureido]-cyclohexyloxy}-pyridine-2-carboxylic acid tert-butyl ester]
[3]
  IC50: > 10000 nM

## CCOC(=O)c1ccc(O[C@H]2CC[C@@H](NC(=O)Nc3ccc(OC(F)(F)F)cc3)CC2)cc1 [Compound 1612, reference compound]
[2]; read-out: Human sEH IC50
  IC50: 3.4 nM

## O=C(Nc1ccc(Cl)c(C(F)(F)F)c1)N[C@H]1CC[C@H](Oc2ccc(C(F)(F)F)cn2)CC1 [Compound 2288, trans-1-(4-Chloro-3-trifluoromethyl-phenyl)-3-[4-(5-trifluoromethyl-pyridin-2-yloxy)-cyclohexyl]-urea]
[3]
  IC50: > 10000 nM
[1]; [10]
  IC50: > 10000 nM
[2]; read-out: Human sEH IC50
  IC50: 9 nM

## CC(C)(C)OC(=O)c1ccc(O[C@H]2CC[C@H](NC(=O)Nc3ccc(Cl)c(C(F)(F)F)c3)CC2)cn1 [Compound 2315, trans-5-{4-[3-(4-Chloro-3-trifluoromethyl-phenyl)-ureido]-cyclohexyloxy}-pyridine-2-carboxylic acid tert-butyl ester]
[1]; [10]
  IC50: > 10000 nM
[2]; read-out: Human sEH IC50
  IC50: 0.5 nM

## N#Cc1ccc(O[C@H]2CC[C@H](NC(=O)Nc3ccc(OC(F)(F)F)cc3)CC2)cc1 [Compound 2581, trans-1-[4-(4-Cyano-phenoxy)-cyclohexyl]-3-(4-trifluoromethoxy-phenyl)-urea]
[2]; read-out: Human sEH IC50
  IC50: 0.5 nM

## O=C(Nc1ccc(C(F)(F)F)cc1)N[C@H]1CC[C@H](Oc2ccc(C(=O)O)cc2)CC1 [Compound 2372, trans-4-{4-[3-(4-Trifluoromethyl-phenyl)-ureido]-cyclohexyloxy}-benzoic acid]
[1]; [10]
  IC50: > 10000 nM
[2]; read-out: Human sEH IC50
  IC50: 0.9 nM

## N#Cc1ccc(O[C@H]2CC[C@H](NC(=O)Nc3ccc(C(F)(F)F)cc3)CC2)cc1 [Compound 2579, trans-1-[4-(4-Cyano-phenoxy)-cyclohexyl]-3-(4-trifluoromethyl-phenyl)-urea]
[2]; read-out: Human sEH IC50
  IC50: 0.5 nM

## O=C(Nc1ccc(OC(F)(F)F)cc1)N[C@H]1CC[C@H](Oc2ccnc(C(=O)N3CCCC3)c2)CC1 [Compound 2578, trans-1-{4-[2-(Pyrrolidine-1-carbonyl)-pyridin-4-yloxy]-cyclohexyl}-3-(4-trifluoromethoxy-phenyl)-urea]
[2]; read-out: Human sEH IC50
  IC50: 0.5 nM

## O=C(NC12CC3CC(CC(C3)C1)C2)N[C@H]1CC[C@H](Oc2ccc(C(=O)O)cc2)CC1 [Compound 1471, reference compound]
[4]
  EC50: > 25000 nM

## CNC(=O)c1cc(O[C@H]2CC[C@@H](NC(=O)Nc3ccc(Cl)c(C(F)(F)F)c3)CC2)ccn1 [Compound 2319, cis-4-{4-[3-(4-chloro-3-trifluoromethyl-phenyl)-ureido]-cyclohexyloxy}-pyridine-2-carboxylic acid methylamide]
[2]; read-out: Human sEH IC50
  IC50: 0.5 nM
[5]; HepG2, MTT, 72 hours incubation
  EC50: 7500 nM
[6]; SK-BR-3, MTT, 72 hours incubation
  EC50: 8000 nM
[7]; Huh-7, MTT, 72 hours incubation
  EC50: 8500 nM

## N#Cc1ccc(O[C@H]2CC[C@H](NC(=O)Nc3ccc(Cl)c(C(F)(F)F)c3)CC2)cc1 [Compound 2182, trans-1-(4-Chloro-3-trifluoromethyl-phenyl)-3-[4-(4-cyano-phenoxy)-cyclohexyl]-urea]
[2]
  IC50: 14.6 nM

## CNC(=O)c1cc(Oc2ccc(NC(=O)Nc3ccc(Cl)c(C(F)(F)F)c3)cc2)ccn1 [Sorafenib, reference compound]
[8]
  EC50: 3000 nM
[6]; SK-BR-3, 72 h
  EC50: 6500 nM
[7]; Huh-7, 72 h
  EC50: 4200 nM
[4]
  EC50: 4000 nM
[9]
  EC50: 5500 nM

## CNC(=O)c1ccc(O[C@H]2CC[C@H](NC(=O)Nc3ccc(Cl)c(C(F)(F)F)c3)CC2)cn1 [Compound 2316, trans-5-{4-[3-(4-Chloro-3-trifluoromethyl-phenyl)-ureido]-cyclohexyloxy}-pyridine-2-carboxylic acid methylamide]
[3]
  IC50: 1500 nM
[1]; [10]
  IC50: 175 ± 20 nM
[2]; read-out: Human sEH IC50
  IC50: 0.5 nM

## CCN(CC)C(=O)c1cc(O[C@H]2CC[C@H](NC(=O)Nc3ccc(OC(F)(F)F)cc3)CC2)ccn1 [Compound 2577, trans-4-{4-[3-(4-Trifluoromethoxy-phenyl)-ureido]-cyclohexyloxy}-pyridine-2-carboxylic acid diethylamide]
[2]; read-out: Human sEH IC50
  IC50: 0.5 nM

## O=C(Nc1ccc(Cl)cc1)N[C@H]1CC[C@H](Oc2ccc(C(=O)O)cc2)CC1 [Compound 2084, trans-4-{4-[3-(4-Chloro-phenyl)-ureido]-cyclohexyloxy}-benzoic acid]
[1]; [10]
  IC50: > 10000 nM
[2]; read-out: Human sEH IC50
  IC50: 5.5 nM

## CNC(=O)c1cc(O[C@H]2CC[C@H](NC(=O)Nc3ccc(OC(F)(F)F)cc3)CC2)ccn1 [Compound 2575, trans-4-{4-[3-(4-Trifluoromethoxy-phenyl)-ureido]-cyclohexyloxy}-pyridine-2-carboxylic acid methylamide]
[1]; [10]
  IC50: > 10000 nM
[2]; read-out: Human sEH IC50
  IC50: 0.5 nM

## CNC(=O)c1ccc(O[C@H]2CC[C@H](NC(=O)Nc3ccc(Cl)c(C(F)(F)F)c3)CC2)cc1 [Compound 2253, trans-4-{4-[3-(4-Chloro-3-trifluoromethyl-phenyl)-ureido]-cyclohexyloxy}-N-methyl-benzamide]
[2]; read-out: Human sEH IC50
  IC50: 0.5 nM

## CNC(=O)c1ccc(O[C@H]2CC[C@@H](NC(=O)Nc3ccc(OC(F)(F)F)cc3)CC2)cc1 [Compound 2228, cis-N-Methyl-4-{4-[3-(4-trifluoromethoxy-phenyl)-ureido]-cyclohexyloxy}-benzamide]
[1]
  IC50: > 10000 nM

## O=C(Nc1ccc(OC(F)(F)F)cc1)N[C@H]1CC[C@H](Oc2ccc(C(=O)O)cc2)CC1 [Compound 1728, trans-4-{4-[3-(4-Trifluoromethoxy-phenyl)-ureido]-cyclohexyloxy}-benzoic acid]
[5]; FIG. 2
  Effect on Hep G2 cell viability (dose dependence): limited effect
[5]; FIG. 4
  Effect on Hep G2 cell viability (dose dependence): limited effect
[5]; HepG2, 72 h
  EC50: 15000 nM
[5]; administered in combination with sunitinib, Hep G2
  Effect on sunitinib's ability to kill cancer cells: potentiates
[7]; Huh-7, 72 h
  EC50: 20000 nM
[4]
  EC50: 15000 nM

## CC(C)(C)OC(=O)c1cc(O[C@H]2CC[C@@H](NC(=O)Nc3ccc(Cl)c(C(F)(F)F)c3)CC2)ccn1 [Compound 2318, cis-4-{4-[3-(4-Chloro-3-trifluoromethyl-phenyl)-ureido]-cyclohexyloxy}-pyridine-2-carboxylic acid tert-butyl ester]
[3]; at 10 μM concentration
  inhibition at 10 µM: 51%
[1]; read-out: Raf-1 % inhibition, at 10 μM concentration
  inhibition at 10 µM: 54%

## N#Cc1ccc(O[C@H]2CC[C@H](NC(=O)Nc3ccc(Cl)cc3)CC2)cc1 [Compound 2580, trans-1-(4-Chloro-phenyl)-3-[4-(4-cyano-phenoxy)-cyclohexyl]-urea]
[2]; read-out: Human sEH IC50
  IC50: 0.5 nM

## CNC(=O)c1cc(Oc2ccc(NC(=O)NC34CC5CC(CC(C5)C3)C4)cc2)ccn1 [Compound 2287, 4-[4-(3-Adamantan-1-yl-ureido)-phenoxy]-pyridine-2-carboxylic acid methylamide]
[3]
  IC50: > 10000 nM
[1]; [10]
  IC50: > 10000 nM
[2]; read-out: Human sEH IC50
  IC50: 0.5 nM

## O=C(Nc1ccc(Cl)c(C(F)(F)F)c1)N[C@H]1CC[C@H](Oc2ccc(C(=O)O)cc2)CC1 [Compound 2221, trans-4-{4-[3-(4-Chloro-3-trifluoromethyl-phenyl)-ureido]-cyclohexyloxy}-benzoic acid]
[3]
  IC50: > 10000 nM
[2]
  IC50: 0.5 nM
